≈ marks a conversion by molar mass, not a printed value. Like-named read-outs stand apart in the source and are kept apart here. Marks after values point to notes of the source that are not given here.
Columns and labels:
[1] = system: Aspergillus fumigatus; test: Antifungal susceptibility testing, broth dilution (MIC/MFC); type: cell-based; settings: Aspergillus fumigatus; for MIC: read-out: MIC
Outline: (§1)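 Tested against two isolates per species (one for C. glabrata). After MIC, fungicidal concentration determined by plating 0.1 μl from MIC and each higher concentration.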

[2] = system: Candida glabrata; test: as above; type: cell-based; settings: Nakaseomyces glabratus; C. glabrata; read-out: MIC
Outline: as §1

[3] = system: Candida albicans; test: as above; type: cell-based; settings: Candida albicans; C. albicans 90028; read-out: MIC
Outline: as §1

[4] = system: MCF-7 human breast tumor; test: MCF-7 Human Breast Tumor Xenograft Model; type: in vivo, nude mice; settings: in combination with taxotere
Description: Animals used were (exceptions are indicated for individual studies): female nude mice (nu/nu) between 5 and 6 weeks of age (˜20 g, Harlan); group size was 9-10 mice per group unless otherwise indicated.
(§2) Selected novel compounds were administered as monotherapy via the intraperitoneal (i.p.) route at the doses indicated for the individual study; for the combination studies the selected reference chemotherapy agents were injected 15-30 min prior to the compound.
(§3) Saline dilutions are used to achieve the injection concentrations used for the reference compounds.
Female nude mice (˜20 g) were implanted s.c. with 21-day release estrogen (0.25 mg) pellets 24 hours prior to the s.c. implantation with MCF-7 tumor fragments (harvested from s.c. tumors in nude mice hosts). The study then proceeded as described for the HT-29 model, using taxotere as the standard chemotherapy agent.
In this model unless otherwise noted for the individual study, the novel compounds were injected via the intraperitoneal route daily on Days 1-5, inclusive (qdx5); taxotere was administered intravenously on Days 1, 3 and 5 (qodx3).
The doses of the compounds were administered on Days 1, 2, 3, 4, and 7; Taxotere was administered on Days 1, 3 and 7.

[5] = system: MES-SA (Taxol Sensitive) human uterine sarcoma; test: Drug resistant cell line pair, cytotoxicity (Example 10B); type: cell-based
Description: (§4) 1) Human Uterine Sarcoma Tumor Cell Line Pair: MES-SA (Taxol Sensitive) and MES-SA/Dx5 (Taxol Resistant).

[6] = system: MES-SA/Dx5 (Taxol Resistant) human uterine sarcoma; test: as above; type: cell-based
Description: as §4

[7] = system: HT-29 human colon tumor; test: HT-29 Human Colon Tumor Xenograft Model; type: in vivo
Description: as §2, §3
Animals were implanted subcutaneously (s.c.) by trocar with fragments of HT-29 tumors harvested from s.c. growing tumors in nude mice hosts. When the tumor size reached 5 mm×5 mm (about 10-17 days) the animals were matched into treatment and control groups. Mice were weighed twice weekly and tumor measurements were obtained using calipers twice weekly, starting on Day 1. The tumor measurements were converted to estimated mg tumor weight using the formula (W^2×L)/2. When the estimated tumor weight of the control group reached an average of 1000 mg the mice were weighed, sacrificed and the tumor removed.

[8] = system: HL-60 (Mitoxantrone-Sensitive) human acute promyelocytic leukemia; test: Drug resistant cell line pair, cytotoxicity (Example 10B); type: cell-based; settings: HL-60 Sensitive
Description: (§5) 2) Human Acute Promyelocytic Leukemia Cell Line Pair: HL-60 (Mitoxantrone-Sensitive) and HL-60/MX-2 (Mitoxantrone-Resistant)

[9] = system: HuVEC; test: Action on microtubule function, α-tubulin staining; settings: 2 μM, thirty minutes exposure
[10] = system: HL-60/MX-2 (Mitoxantrone-Resistant); test: Drug resistant cell line pair, cytotoxicity (Example 10B); type: cell-based, human; settings: Homo sapiens, HL60/MX2; HL-60 Resistant (HL-60/MX-2)
Description: as §5

[11] = system: MDA-MB-231 (human breast tumor); test: Tumor panel screen cytotoxicity (Example 10A); type: cell-based; settings: MDA-MB-231 Breast
Description: (§6) Cells were maintained at subconfluent densities in their respective culture media.

[12] = system: CCD-27sk (normal human fibroblast); test: Tumor panel screen cytotoxicity (Example 10A); type: cell-based; settings: Homo sapiens; CCD-27sk Fibroblast
Description: as §6

[13] = system: NCI-H292 (human non-small cell lung tumor); test: Tumor panel screen cytotoxicity (Example 10A); type: cell-based
Description: as §6

[14] = system: OVCAR-3 (human ovarian tumor); test: Tumor panel screen cytotoxicity (Example 10A); type: cell-based; settings: OVCAR-3 Ovary
Description: as §6

[15] = system: B16-F10 (murine melanoma); test: Tumor panel screen cytotoxicity (Example 10A); type: cell-based
Description: as §6

[16] = system: PC3 (human prostate tumor); test: Tumor panel screen cytotoxicity (Example 10A); type: cell-based; settings: PC-3 Prostate
Description: as §6

[17] = system: HT29 (human colon tumor); test: Tumor panel screen cytotoxicity (Example 10A); type: cell-based; settings: HT-29 Colon
Description: as §6

[18] = Tumor panel screen cytotoxicity (Example 10A); type: cell-based, human; settings: human, CCD-27sk normal fibroblast cells; CCD-27sk Fibroblast; maximum cytotoxic effect
Description: as §6

[19] = system: MCF7 cells, GFP-alpha-tubulin; test: Analysis of microtubule dynamics, time-lapse microscopy; type: cell-based, human
[20] = system: MCF7 human breast carcinoma cells; test: Mitotic progression (mitotic index); type: cell-based; settings: 20 hours, read-out: Mitotic block Ave. IC50 ± sd
Description: The fraction of cells in mitosis at a given drug concentration (mitotic index) was determined in the breast cancer cell line MCF7. Cells were plated at a density of 3×10^4 cells/ml in six-well plates. After 24 hours, cells were incubated in the absence or presence of drug over a range of concentrations (1 nM to 1 μM) for 20 hours. […] Cells were fixed with 10% formalin in PBS overnight at 37° C., permeabilized in methanol for 10 minutes, and stained with 4,6-diamidino-phenylindole (DAPI) to visualize nuclei. Stained cells were spread on coverslips in Vectashield mounting media (Burlingame, Calif.) and sealed onto slides with nail polish. Fluorescence microscopy was used to determine mitotic indices.

[21] = system: MAP-rich microtubules; test: Microtubule mean length distributions, transmission electron microscopy; type: biochemical, bovine; settings: in words
Description: Transmission electron microscopy was used to determine the mean length distribution of microtubules in the absence or presence of tested agent. At 75 minutes and prior to sedimentation, 10 μl aliquots from the polymer mass experiments were fixed by dilution into 290 μl PEM100-buffered 0.2% glutaraldehyde. Thirty microliters of fixed sample was settled onto formvar-coated 150 ICG mesh electron microscope grids for 90 seconds. Excess sample was wicked off with Whatman filter paper. Thirty microliters of cytochrome C (1 mg/ml) was applied for 30 seconds to enhance protofilament resolution and facilitate negative staining. Uranyl acetate (1.5%) was applied for 20 seconds and the excess was wicked off Grids were viewed in a Jeol electron microscope-1200 EX11 at 2000× and 30,000× magnification. The Zeiss MOPIII was used to determine microtubule length distributions and mean lengths for at least 100 microtubules per sample.

[22] = Table 28, concentration effecting 25% of the maximal mitotic block
[23] = Table 29, concentration effecting 50% of the maximal mitotic block

CC(C)(C)c1[nH]cnc1/C=C1\NC(=O)[C@H](Cc2ccccc2)NC1=O [t-butyl-phenylahistin]
MIC ([1]; A. fumigatus isolate #1): > 16 µg/mL | MFC ([1]; A. fumigatus isolate #2): 0.125 µg/mL (≈ 0.369 µM) | MIC ([1]; A. fumigatus isolate #2): < 0.03 µg/mL | MIC [2]: > 32 µg/mL | MIC [3]: > 32 µg/mL | effect on estimated tumor growth [4]: significant potentiation of taxotere | IC50 ([5]; Homo sapiens, MES-SA, CsA Pretreat, Studies II-III in separate lines): 162 nM | IC50 ([5]; Homo sapiens, MES-SA, No CsA, Studies I-III in separate lines): 144 nM | IC50 ([5]; No CsA, Studies I-III in separate lines): 122 nM | IC50 ([6]; Homo sapiens, MES-SA/Dx5, MES-SA/DX5 Resistant, CsA Pretreat, Studies II-III in separate lines): 622 nM | IC50 ([6]; Homo sapiens, MES-SA/Dx5, MES-SA/DX5 Resistant, No CsA, Studies I-III in separate lines): 825 nM | IC50 ([6]; MES-SA/DX5 Resistant, No CsA, Studies I-III in separate lines): 694 nM | potency in the resistant MES-SA/DX5 line vs the sensitive line ([6]; in words): only slightly reduced | Comments (combination with CPT-11) ([7]; NPI compound + CPT-11 100 ip qwx3, study and dose as in the line): Synergy | NPI-Compound Result TGI % ([7]; Study 2139, monotherapy 30 mg/kg ip q3dx5): No Effect | Combination Results TGI % ([7]; Study 2139, t-butyl-phenylahistin 30 mg/kg ip q3dx5 + CPT-11 100 ip qwx3): 77.7 *, # % | Exceed NCI Criterion (TGI ≧ 58%) ([7]; which treatment group exceeds the criterion, NPI compound, CPT-11 100 ip qwx3 or combination, study and dose as in the line): Combination | IC50 [8]: 255 nM | microtubule depolymerization in HuVEC cells [9]: induced microtubule depolymerization | IC50 [10]: 175 nM | IC50 ([11]; Homo sapiens): 387 nM | % Cytotoxicity Mean ([11]; maximum cytotoxic effect): 65.5% | IC50 [12]: > 20000 nM | IC50 ([13]; Homo sapiens): 384 nM | % Cytotoxicity Mean ([13]; maximum cytotoxic effect): 65% | IC50 ([14]; Homo sapiens): > 20000 nM | % Cytotoxicity Mean ([14]; maximum cytotoxic effect): 37% | IC50 ([15]; Mus musculus): 736 nM | % Cytotoxicity Mean ([15]; maximum cytotoxic effect): 74% | IC50 ([16]; Homo sapiens): 174 nM | % Cytotoxicity Mean ([16]; maximum cytotoxic effect): 59.5% | % Cytotoxicity Mean ([17]; maximum cytotoxic effect): 88% | IC50 ([17]; Homo sapiens): 420 nM | cytotoxicity at 48 h [18]: 45%

COc1ccc(/C=C\c2cc(OC)c(OC)c(OC)c2)cc1O [CA4, Combretastatin A4]
% time spent, Attenuation [19, 22]: 39.50% | % time spent, Growth [19, 22]: 35.31% | % time spent, Shortening [19, 22]: 25.19% | Freq. of Catastrophe [19, 22]: 1.52 min⁻¹ | Freq. of Rescue [19, 22]: 1.90 min⁻¹ | Mean duration, Attenuation [19, 22]: 0.45 min | Mean duration, Growth [19, 22]: 0.27 min | Mean duration, Shortening [19, 22]: 0.21 min | Mean rates, Growth [19, 22]: 10.59 μm/min | Mean rates, Shortening [19, 22]: 40.21 μm/min | Dyn. ([19]; Table 28, dynamicity, concentration effecting 25% of the maximal mitotic block): 13.87 μm/min | % time spent, Attenuation [19, 23]: 36.23% | % time spent, Growth [19, 23]: 43.64% | % time spent, Shortening [19, 23]: 20.13% | Dynamicity [19, 23]: 10.91 μm/min | Freq. of Catastrophe [19, 23]: 1.09 min⁻¹ | Freq. of Rescue [19, 23]: 2.79 min⁻¹ | Mean duration, Attenuation [19, 23]: 0.55 min | Mean duration, Growth [19, 23]: 0.33 min | Mean duration, Shortening [19, 23]: 0.22 min | Mean rates, Growth [19, 23]: 11.21 μm/min | Mean rates, Shortening [19, 23]: 29.88 μm/min | MT dynamic instability ([19]; concentrations effecting 25% or 50% of maximal mitotic block): did not have a measurable effect on MT dynamic instability | IC50 [20]: 5.4 ± 0.7 nM | MT nucleation [21]: did not affect MT nucleation
